Results: patent publication US6693095B2, “Antibacterial substituted 7-acylamino-3-(methylhydrazono) methyl-cephalosporins and intermediates” (priority 1997, dated 2004)

System: multi-drug resistant Pneumococcus
Test: Agar Dilution Test (NCCLS), MHK
Type: cell-based, Pneumococcus pneumoniae
Settings: against multi-drug resistant Pneumococcus
From the text: In particular, the active compounds of the invention show antimicrobial, e.g. antibacterial, activity against aerobic and anaerobic growing bacteria, e.g. gram negative and gram positive bacteria such as Enterobacter, e.g. Enterobacter cloacae; Enterococcus, e.g. Enterococcus faecalis, Enterococcus faecium; Moraxella, e.g. Moraxella catarrhalis; Haemophilus, e.g. Haemophilus influenza; Klebsiella, e.g. Klebsiella edwardsii, Klebsiella pneumoniae; Streptococcus, e.g. Streptococcus pyogenes; Staphylococcus, e.g. Staphylococcus aureus MSSA (methicillin sensitive strains); Staphylococcus aureus MRSA (methicillin resistant strains); Escherichia, e.g. Escherichia coli; Proteus, e.g. Proteus mirabilis, Salmonella, e.g. Salmonella typhimurium, Serratia, e.g. Serratia marcescens, Pseudomonas, e.g. Pseudomonas aeruginosa; Pneumococci, e.g. Pneumococcus pneumoniae (penicillin sensitive and mult-drug resistant strains); in vitro in the Agar DilutionTest for bacteria according to National Commitee for Clinical Laboratory Standards (NCCLS) 1993,
Document-M7-A3 Vol.13, No. 25: “Methods for dilution Antimicrobial Susceptibility Tests for Bacteria that Grow Aerobically-Third Edition, Approved Standard”; and
Document M11-A3 for anaerobic bacteria […]

7-(((5-amino-1,2,4-thiadiazol-3-yl)-(Z)-(fluoromethoxyimino)acetyl)amino)-3-(imino-1-piperazinyhmethyl)medtylhydrazono)methyl-3-cephem4-carboxylic acid [Example 1]
MHK: 0.4 µg/mL
